Literature values in paper PMC10323144, “Garbage in, garbage out: how reliable training data improved a virtual screening approach against SARS-CoV-2 MPro” (Frontiers in Pharmacology, 2023).

Tested on: MPro
Settings: compiled from peer-reviewed sources (287 compounds) ref the 18 original articles; cited from earlier work

Row | SMILES | Class (MPro activity class)
1 | CC1OC(OCC2OC(OCCc3ccc(O)c(O)c3)C(O)C(OC(=O)C=Cc3ccc(O)c(O)c3)C2O)C(O)C(O)C1O (stereo not drawn) [Forsythoside I] | 1 (Compounds with IC50 < 10 µM or with a percentage of enzyme inhibition >50% at 10 µM were labelled as ACTIVE)
2 | CO[C@@H]1[C@H](OC(=O)/C=C/C=C/C=C/C=C/C(=O)O)CC[C@]2(CO2)[C@H]1[C@@]1(C)O[C@@H]1CC=C(C)C [Fumagillin] | 0 (compounds with IC50 > 20 μM, percentage inhibition <80% at 20 µM or 50 μM, or percentage enzyme inhibition <50% at 10 µM were labelled as INACTIVE)
3 | Cc1cc(Nc2cc(CN3CCOCC3)c3nc(C)c(Cc4ccc(Cl)cc4F)n3n2)n[nH]1 [GANDOTINIB] | 0 (compounds with IC50 > 20 μM, percentage inhibition <80% at 20 µM or 50 μM, or percentage enzyme inhibition <50% at 10 µM were labelled as INACTIVE)
4 | CC(C)CC(NC(=O)OCc1ccccc1)C(=O)NC(C=O)CC1CCNC1=O (stereo not drawn) [GC373] | 1 (Compounds with IC50 < 10 µM or with a percentage of enzyme inhibition >50% at 10 µM were labelled as ACTIVE)
5 | CC(C)CC(NC(=O)OCc1ccccc1)C(=O)NC(CC1CCNC1=O)C(O)S(=O)(=O)O (stereo not drawn) [GC-376] | 1 (Compounds with IC50 < 10 µM or with a percentage of enzyme inhibition >50% at 10 µM were labelled as ACTIVE)
6 | O=C(CCl)N1CCN(C(c2ccccc2)C2CCCCC2)CC1 (stereo not drawn) [GIA-UNK-20b63697-6] | 1 (Compounds with IC50 < 10 µM or with a percentage of enzyme inhibition >50% at 10 µM were labelled as ACTIVE)
7 | O=C(OCC(O)CO)c1ccccc1Nc1ccnc2cc(Cl)ccc12 (stereo not drawn) [GLAFENINE] | 0 (compounds with IC50 > 20 μM, percentage inhibition <80% at 20 µM or 50 μM, or percentage enzyme inhibition <50% at 10 µM were labelled as INACTIVE)
8 | O=C(Oc1cncc(Cl)c1)c1cccc2c1CCN2 [GRL-172] | 1 (Compounds with IC50 < 10 µM or with a percentage of enzyme inhibition >50% at 10 µM were labelled as ACTIVE)
9 | COc1cccc(Nc2c(C(N)=O)cnc3c(C)cc(S(=O)(=O)c4cccc(C(=O)N(C)C)c4)cc23)c1 [GSK-256066] | 0 (compounds with IC50 > 20 μM, percentage inhibition <80% at 20 µM or 50 μM, or percentage enzyme inhibition <50% at 10 µM were labelled as INACTIVE)
10 | CCOC(=O)c1ccc(OC(=O)CCCCCNC(=N)N)cc1 [Gabexate] | 0 (compounds with IC50 > 20 μM, percentage inhibition <80% at 20 µM or 50 μM, or percentage enzyme inhibition <50% at 10 µM were labelled as INACTIVE)
11 | CC(C)(C)[C@@H]1NC(=O)O[C@@H]2CCC[C@H]2OC/C=C/C(F)(F)c2nc3ccccc3nc2O[C@@H]2C[C@@H](C(=O)N[C@]3(C(=O)NS(=O)(=O)C4(C)CC4)C[C@H]3C(F)F)N(C2)C1=O [Glecaprevir] | 0 (compounds with IC50 > 20 μM, percentage inhibition <80% at 20 µM or 50 μM, or percentage enzyme inhibition <50% at 10 µM were labelled as INACTIVE)
12 | O=c1c(O)c(-c2ccc(O)cc2)oc2c(O)c(O)cc(O)c12 [Herbacetin] | 0 (compounds with IC50 > 20 μM, percentage inhibition <80% at 20 µM or 50 μM, or percentage enzyme inhibition <50% at 10 µM were labelled as INACTIVE)
13 | CCN(CCO)CCCC(C)Nc1ccnc2cc(Cl)ccc12 (stereo not drawn) [Hydroxychloroquine] | 0 (compounds with IC50 > 20 μM, percentage inhibition <80% at 20 µM or 50 μM, or percentage enzyme inhibition <50% at 10 µM were labelled as INACTIVE)
14 | Cc1cc(C(=O)CN2CCCC2)c(C)n1-c1ccc(F)cc1 [IU1 S7134] | 0 (compounds with IC50 > 20 μM, percentage inhibition <80% at 20 µM or 50 μM, or percentage enzyme inhibition <50% at 10 µM were labelled as INACTIVE)
15 | CNC(=O)[C@H](Cc1c[nH]c2ccccc12)NC(=O)[C@@H](CC(=O)NO)CC(C)C [Ilomastat] | 0 (compounds with IC50 > 20 μM, percentage inhibition <80% at 20 µM or 50 μM, or percentage enzyme inhibition <50% at 10 µM were labelled as INACTIVE)
16 | O=C(C=Cc1ccc(O)c(O)c1)OC1CC(O)(C(=O)O)CC(OC(=O)C=Cc2ccc(O)c(O)c2)C1O (stereo not drawn) [Isochlorogenic acid A] | 0 (compounds with IC50 > 20 μM, percentage inhibition <80% at 20 µM or 50 μM, or percentage enzyme inhibition <50% at 10 µM were labelled as INACTIVE)
17 | O=C(C=Cc1ccc(O)c(O)c1)OC1CC(O)(C(=O)O)CC(O)C1OC(=O)C=Cc1ccc(O)c(O)c1 (stereo not drawn) [Isochlorogenic acid B] | 0 (compounds with IC50 > 20 μM, percentage inhibition <80% at 20 µM or 50 μM, or percentage enzyme inhibition <50% at 10 µM were labelled as INACTIVE)
18 | CCC(C)n1ncn(-c2ccc(N3CCN(c4ccc(OCC5COC(Cn6cncn6)(c6ccc(Cl)cc6Cl)O5)cc4)CC3)cc2)c1=O (stereo not drawn) [Itraconazole] | 0 (compounds with IC50 > 20 μM, percentage inhibition <80% at 20 µM or 50 μM, or percentage enzyme inhibition <50% at 10 µM were labelled as INACTIVE)
19 | CCC(C)C1OC2(CCC1C)CC1CC(CC=C(C)C(OC3CC(OC)C(OC4CC(OC)C(O)C(C)O4)C(C)O3)C(C)C=CC=C3COC4C(O)C(C)=CC(C(=O)O1)C34O)O2 (stereo not drawn) [Ivermectin] | 0 (compounds with IC50 > 20 μM, percentage inhibition <80% at 20 µM or 50 μM, or percentage enzyme inhibition <50% at 10 µM were labelled as INACTIVE)
20 | O=C(Cc1cccc(Cl)c1)Nn1cnc2ccccc21 [JAN-GHE-5a013bed-2] | 1 (Compounds with IC50 < 10 µM or with a percentage of enzyme inhibition >50% at 10 µM were labelled as ACTIVE)

Row | SMILES | Class (MPro activity class)
21 | O=C(Cc1cccc(Cl)c1)Nn1cnc2ccccc2c1=O [JAN-GHE-5a013bed-3] | 1 (Compounds with IC50 < 10 µM or with a percentage of enzyme inhibition >50% at 10 µM were labelled as ACTIVE)
22 | Cc1ccncc1NC(=O)Cc1cccc(Br)c1 [JAN-GHE-83b26c96-12] | 0 (compounds with IC50 > 20 μM, percentage inhibition <80% at 20 µM or 50 μM, or percentage enzyme inhibition <50% at 10 µM were labelled as INACTIVE)
23 | O=C(Nc1cccnc1)N(CCC1CCCCC1)c1cccc(Cl)c1 [JOR-UNI-2fc98d0b-12] | 1 (Compounds with IC50 < 10 µM or with a percentage of enzyme inhibition >50% at 10 µM were labelled as ACTIVE)
24 | O=C(Nc1cnn2ccc(N3CCC[C@@H]3c3cc(F)ccc3F)nc12)N1CC[C@H](O)C1 [LAROTRECTINIB] | 0 (compounds with IC50 > 20 μM, percentage inhibition <80% at 20 µM or 50 μM, or percentage enzyme inhibition <50% at 10 µM were labelled as INACTIVE)
25 | Cc1nn(-c2ccccc2)c(Nc2cccc(C(F)(F)F)c2)c1NS(C)(=O)=O [LASSBio-428 (10)] | 0 (compounds with IC50 > 20 μM, percentage inhibition <80% at 20 µM or 50 μM, or percentage enzyme inhibition <50% at 10 µM were labelled as INACTIVE)
26 | O=C(NN=Cc1c[nH]cn1)C1CCCCC1 [LASSBio-1600 (15)] | 0 (compounds with IC50 > 20 μM, percentage inhibition <80% at 20 µM or 50 μM, or percentage enzyme inhibition <50% at 10 µM were labelled as INACTIVE)
27 | O=C(CNc1c(-c2ccccc2)nc2ccccn12)NN=Cc1cccc2ccccc12 [LASSBio-1615 (11)] | 0 (compounds with IC50 > 20 μM, percentage inhibition <80% at 20 µM or 50 μM, or percentage enzyme inhibition <50% at 10 µM were labelled as INACTIVE)
28 | Cc1[nH]c2ccccc2c1C=NN(C)C(=O)c1ccc2c(c1)OCO2 [LASSBio-1649 (13)] | 0 (compounds with IC50 > 20 μM, percentage inhibition <80% at 20 µM or 50 μM, or percentage enzyme inhibition <50% at 10 µM were labelled as INACTIVE)
29 | CN1C(=O)C(=NNC(=O)c2ccc3c(c2)OCO3)c2ccccc21 [LASSBio-1652 (16)] | 0 (compounds with IC50 > 20 μM, percentage inhibition <80% at 20 µM or 50 μM, or percentage enzyme inhibition <50% at 10 µM were labelled as INACTIVE)
30 | Cc1csc(C(=O)NN=Cc2cccnc2)c1N [LASSBio-1891 (14)] | 0 (compounds with IC50 > 20 μM, percentage inhibition <80% at 20 µM or 50 μM, or percentage enzyme inhibition <50% at 10 µM were labelled as INACTIVE)
31 | O=C(Nc1ccccc1)Nc1cnc2ccc([N+](=O)[O-])cc2n1 [LASSBio-1962 (8)] | 0 (compounds with IC50 > 20 μM, percentage inhibition <80% at 20 µM or 50 μM, or percentage enzyme inhibition <50% at 10 µM were labelled as INACTIVE)
32 | CC(=O)ON=C1C(=O)N(Cc2cc(Cl)ccc2Cl)c2ccc(Cl)cc21 [LDN-57444] | 0 (compounds with IC50 > 20 μM, percentage inhibition <80% at 20 µM or 50 μM, or percentage enzyme inhibition <50% at 10 µM were labelled as INACTIVE)
33 | O=C(CCl)N1CCN(S(=O)(=O)c2c(F)cccc2F)CC1 [LON-WEI-8f408cad-2] | 1 (Compounds with IC50 < 10 µM or with a percentage of enzyme inhibition >50% at 10 µM were labelled as ACTIVE)
34 | O=C(CCl)N1CCN(S(=O)(=O)c2cccs2)CC1 [LON-WEI-8f408cad-3] | 1 (Compounds with IC50 < 10 µM or with a percentage of enzyme inhibition >50% at 10 µM were labelled as ACTIVE)
35 | O=C(CCl)N1CCN(S(=O)(=O)c2cccc(F)c2)CC1 [LON-WEI-8f408cad-4] | 1 (Compounds with IC50 < 10 µM or with a percentage of enzyme inhibition >50% at 10 µM were labelled as ACTIVE)
36 | C=CC(=O)N(c1ccc(C(C)(C)C)cc1)C(C(=O)Nc1ccc(OC)cc1OC)c1cccnc1 (stereo not drawn) [LON-WEI-adc59df6-45] | 1 (Compounds with IC50 < 10 µM or with a percentage of enzyme inhibition >50% at 10 µM were labelled as ACTIVE)
37 | C=CC(=O)N(c1ccc(C(C)(C)C)cc1)C(C(=O)NCCc1cccc(F)c1)c1cccnc1 (stereo not drawn) [LON-WEI-adc59df6-47] | 1 (Compounds with IC50 < 10 µM or with a percentage of enzyme inhibition >50% at 10 µM were labelled as ACTIVE)
38 | C=CC(=O)N(c1ccc(C(C)(C)C)cc1)C(C(=O)NCCc1cccc(F)c1)c1cncc(C#N)c1 (stereo not drawn) [LON-WEI-babf2c61-3] | 1 (Compounds with IC50 < 10 µM or with a percentage of enzyme inhibition >50% at 10 µM were labelled as ACTIVE)
39 | CS(=O)(=O)c1ncc(Cl)c(C(=O)Nc2ccccc2Cc2ccccc2)n1 [LON-WEI-ff7b210a-4] | 1 (Compounds with IC50 < 10 µM or with a percentage of enzyme inhibition >50% at 10 µM were labelled as ACTIVE)
